What all share (experiment): NCI anticancer screen, dose series, 48 h
Assay [1] deals with KM12.
The subject of assay [2] is COLO 205.
For assay [3], the system named is T47D.
Assay [4] has as its system MDA-N.
The subject of assay [5] is LXFL 529.
For assay [6], the system named is PC-3.
Assay [7] has as its system NCI/ADR-RES.
Assay [8] deals with SK-MEL-2.
The test system of assay [9] is SF-539.
The subject of assay [10] is LOX IMVI.
Assay [11] deals with SW-620.
Assay [12] has as its system UO-31.
Assay [13] relates to SK-OV-3.
For assay [14], the system named is DU-145.
Assay [15] relates to HOP-92.
Assay [16] has as its system SF-268.
The subject of assay [17] is M14.
Assay [18] has as its system MDA-MB-435.
For assay [19], the system named is HCC 2998.
The test system of assay [20] is SK-MEL-5.

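Results reflect a 48-hour exposure of cells in 96-well plates to compound at five concentrations. GI50 is the concentration that inhibits growth by half.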 Activity calls are given as the source filed them. Rule as the data show it: active = GI50 up to about 1.1 µM and inactive = higher. Bounds are passed on as bounds.

Regarding `COc1cc2c3c(c1OC)-c1cc4c(cc1CC3(C#N)N(C(=O)c1ccccc1)CC2)OCO4` (configuration not stated), the GI50 in assay [1] is > 75.5 µM (inactive); in [2], > 100 µM (inactive); in assay [3] it was > 100 µM (inactive); in assay [4] it was > 100 µM (inactive); in [5], 17.7 µM (inactive); in assay [6] it was > 76.4 µM (inactive). Also, the GI50 is > 60 µM (inactive) in assay [7]; 46.6 µM (inactive) in [8]; 17.7 µM (inactive) in [9]; > 56.8 µM (inactive) in assay [10]; 87.9 µM (inactive) in [11]; 51.2 µM (inactive) in assay [12]. Besides, the GI50 in assay [13] was 25.7 µM (inactive); in [14], > 100 µM (inactive); in assay [15], 8.39 µM (inactive); in assay [16], 31.6 µM (inactive); in [17] it was 54.2 µM (inactive); in assay [18], > 88.5 µM (inactive). Also, the GI50 was > 100 µM (inactive) in assay [19] and 29.2 µM (inactive) in assay [20].

`O=C1OCc2nc3c(c(-c4ccccc4C(F)(F)F)c21)C(=O)OC3`: the GI50 in assay [1], in assay [2], in [5], in assay [8], in assay [9] and in [10] was > 100 µM (inactive) each time. Moreover, the GI50 in assay [11], in assay [12], in [13], in [15], in [16] and in assay [17] was > 100 µM (inactive) each time. Further, the GI50 in assay [19] and in assay [20] was > 100 µM (inactive) throughout.

Regarding `COc1ccccc1C1C(C(=O)Nc2ccccc2)=C(C)NC(C)=C1C(=O)Nc1ccccc1`, the GI50 in assay [1] is 28.2 µM (inactive); in assay [2], 24.5 µM (inactive); in assay [5], 61.5 µM (inactive); in assay [8], 32 µM (inactive); in [9], 36.1 µM (inactive); in assay [10], 83.2 µM (inactive). For the same compound, the GI50 in [11] is 93.8 µM (inactive); in assay [12], 56.5 µM (inactive); in assay [13], > 100 µM (inactive); in assay [15], 44.2 µM (inactive); in [16], > 100 µM (inactive); in [17], 45 µM (inactive). Also, the results for the GI50 in [19] and in assay [20] were > 100 µM (inactive) and 31.8 µM (inactive), respectively.

With `S=c1[nH]c(=S)c2nnn(-c3ccccc3)c2[nH]1`, the GI50 in assay [1], in [2], in assay [5], in assay [8], in assay [9] and in assay [10] was > 100 µM (inactive) throughout. Further, the GI50 in [11], in assay [12], in assay [13], in [15], in assay [16] and in assay [17] was > 100 µM (inactive) each time. For the same compound, the GI50 in [19] and in assay [20] was > 100 µM (inactive) throughout.

In the case of `Cc1c(Cl)ccc2c1NC(=O)C2(O)CC(=O)c1ccc(Cl)cc1Cl` (configuration not stated), the GI50 in [1] was > 50 µM (inactive); in assay [2], > 50 µM (inactive); in assay [3], > 50 µM (inactive); in assay [4] it was > 50 µM (inactive); in [5], 27.8 µM (inactive); in assay [6], > 50 µM (inactive). Further, the GI50 in assay [7] was > 50 µM (inactive); in assay [8], > 50 µM (inactive); in [9], 17.7 µM (inactive); in assay [10], > 50 µM (inactive); in assay [11], > 50 µM (inactive); in assay [12], > 50 µM (inactive). The GI50 in [13] is > 45.9 µM (inactive); in assay [14], > 50 µM (inactive); in [15], 23.6 µM (inactive); in assay [16] it was > 50 µM (inactive); in assay [17] it was > 50 µM (inactive); in assay [18] it was > 50 µM (inactive). In addition, the GI50 in assay [19] and in assay [20] was > 50 µM (inactive) throughout.

As for `CCc1cccc(C)c1NC(=O)C1=C(C)NC(C)=C(C(=O)Nc2c(C)cccc2CC)C1c1ccc2c(c1)OCO2`, the GI50 in assay [1] was 16.4 µM (inactive); in assay [2] it was 18.5 µM (inactive); in [5] it was 18.2 µM (inactive); in [8], 15.1 µM (inactive); in assay [9], 19.7 µM (inactive); in assay [10] it was 18.3 µM (inactive). For the same compound, the GI50 in assay [11] was 20.2 µM (inactive); in assay [12], 15.3 µM (inactive); in assay [13] it was 48.9 µM (inactive); in [15] it was 18.2 µM (inactive); in assay [16], 20.3 µM (inactive); in assay [17] it was 16.1 µM (inactive). The GI50 in [19] is 19.7 µM (inactive); in assay [20], 16.2 µM (inactive).

Consider `O=C(NCc1ccccc1)C1C(=O)C(=O)N(Cc2ccccc2)C1=O` (configuration not stated), for which the GI50 in assay [1], in [2], in assay [5], in assay [8], in assay [9] and in assay [10] was > 100 µM (inactive) throughout. In addition, the GI50 in assay [11], in assay [12], in assay [13], in assay [15], in assay [16] and in assay [17] was > 100 µM (inactive) in each case. For the same compound, the GI50 in [19] and in assay [20] was > 100 µM (inactive) throughout.

As to `COc1cc(C2c3cc4c(cc3[C@H](NC(=O)c3cccs3)C3COC(=O)[C@H]23)OCO4)cc(OC)c1OC` (some centres not stated), the GI50 was < 0.01 µM (active) in assay [1]; 0.0109 µM (active) in assay [2]; 46.7 µM (inactive) in [3]; < 0.01 µM (active) in assay [4]; 0.0296 µM (active) in assay [5]; < 0.01 µM (active) in assay [6]. The GI50 in assay [7] was 0.026 µM (active); in [8] it was 34.1 µM (inactive); in assay [9], < 0.01 µM (active); in assay [10], < 0.0107 µM (active); in [11] it was < 0.016 µM (active); in [12] it was 0.0811 µM (active). Besides, the GI50 in [13] is 0.027 µM (active); in assay [14], < 0.01 µM (active); in assay [15], 0.0198 µM (active); in [16], < 0.0195 µM (active); in assay [17], < 0.0197 µM (active); in assay [19], < 0.0181 µM (active). The GI50 in [20] was < 0.014 µM (active).

As to `C/C(=C\C(C)COCc1ccccc1)[C@H](COCc1ccccc1)OCc1ccccc1` (some centres not stated), the GI50 is > 100 µM (inactive) in [1]; > 100 µM (inactive) in assay [2]; 82 µM (inactive) in assay [5]; > 100 µM (inactive) in [8]; > 100 µM (inactive) in [9]; 24.2 µM (inactive) in assay [10]. Also, the GI50 in assay [11] was > 100 µM (inactive); in assay [12], 83.9 µM (inactive); in assay [13] it was > 100 µM (inactive); in [15] it was 10.4 µM (inactive); in [16], 76.2 µM (inactive); in assay [17] it was > 100 µM (inactive). Besides, the GI50 was > 100 µM (inactive) in [19] and 37.6 µM (inactive) in assay [20].

Regarding `CCCCCCCCCCCC[N+]12CC[N+](C)(CC1)CC2`, the GI50 in [1] is 7.31 µM (inactive); in [2], 5.28 µM (inactive); in assay [5] it was 25.7 µM (inactive); in assay [8] it was 77.8 µM (inactive); in assay [9], 39.4 µM (inactive); in [10], 19.4 µM (inactive). Moreover, the GI50 is 44.3 µM (inactive) in assay [11]; > 100 µM (inactive) in assay [12]; > 100 µM (inactive) in assay [13]; 14.9 µM (inactive) in assay [15]; 18.7 µM (inactive) in assay [16]; 29.6 µM (inactive) in assay [17]. For the same compound, the results for the GI50 in assay [19] and in assay [20] were 8.09 µM (inactive) and > 100 µM (inactive), respectively.

These data come from ChEMBL document CHEMBL1201862, “PubChem BioAssay data set” (2004).
